For test [1], the target named is PfPPase-VP1 (Plasmodium falciparum, UniProt Q8IKR1). The test can be described thus: biochemical. As for the experimental part: The activity of PfPPase-VP1 was determined using a molybdenum blue colorimetric activity assay in 96-well plate format to measure the amount of phosphate production, as previously described for TmPPase but with modifications to pH (5.2–10) and temperature conditions (20–70°C) as described below. To determine the optimal pH for PfPPase-VP1 activity, 5 μL of 2.5 mg/mL total membrane protein was added to the reaction mixture (60 mM of various buffers (below) with pHs ranging from 5.2–10.0, 3 mM MgCl2, 100 mM KCl, and 10 mM NaCl, 100 mM NaF, 5 μM Gramicidin D), to a final volume of 40 μL. Buffers were trisodium-citrate (pH 5.2), MES (pH 6.5), Tris-HCl (pH 6.8, 7.5, 8.0, and 8.8) and glycine-NaOH (pH 10.0). A control sample was prepared by heating the membrane faction at 90 °C for 5 min to inactivate the enzyme. The reaction mixture was incubated at 30 °C for 5 min in a 96-well heating block. After incubation, 10 µl of 2 mM sodium pyrophosphate (PPi) was added, mixed, and incubated for 10 min. The reaction was stopped by adding 60 μL of premixed solution A (0.3 g ascorbic acid in 10 mL of 0.5 M cold HCl) and solution B (70 mg of ammonium heptamolybdate tetrahydrate in 1 mL of cold milli-Q water) and incubating on ice for 1 h. Finally, 90 μL sodium arsenite solution (5 g sodium arsenite, 5 g trisodium citrate dihydrate and 5 mL of iced-acetic acid in 250 mL milli-Q water) was added and incubated at RT for 30 min. Absorbance was measured at 860 nm on a MultiSkan Go UV/Vis spectrophotometer (Thermo Scientific). The specific activity of PfPPase-VP1 in the membrane was calculated using our previously published formula [23]. 60 mM Tris-Cl (pH 7.5) buffer was then selected for optimization of the reaction temperature (RT, 30 °C, 40 °C, 50 °C, 60 °C and 70 °C) by repeating the assay as described above. […] For the activity assay of purified PfPPase-VP1, 0.15 μg of the enzyme in the optimized detergent solution was mixed with 0.8 μL of 20 mg/mL liposomes (soybean lecithin) and then reaction buffer (60 mM Tris-HCl (pH 7.5), 3 mM MgCl2, 100 mM KCl, and 10 mM NaCl) was added to a total volume of 40 μL. The reaction mixture was preheated at 50 °C for 5 min before adding 10 µl of 2mM PPi and mixing. The catalytic reaction was run for 45 min at 50 °C, and the phosphate production was determined as described above. IDP, a known mPPase competitive inhibitor [35], was used as a positive control to validate the assay for inhibitor screening.
The 35 compounds used in this study were pre-dissolved in dimethyl sulfoxide (DMSO) at concentrations of 25–50 mM.
IDP was used in parallel as a positive control. Each concentration of the test compounds was tested in triplicate.

The target of test [2] is T1, TmPPase (Thermotoga maritima, UniProt Q9S5X0).
T1 sequence (Q9S5X0 1-726): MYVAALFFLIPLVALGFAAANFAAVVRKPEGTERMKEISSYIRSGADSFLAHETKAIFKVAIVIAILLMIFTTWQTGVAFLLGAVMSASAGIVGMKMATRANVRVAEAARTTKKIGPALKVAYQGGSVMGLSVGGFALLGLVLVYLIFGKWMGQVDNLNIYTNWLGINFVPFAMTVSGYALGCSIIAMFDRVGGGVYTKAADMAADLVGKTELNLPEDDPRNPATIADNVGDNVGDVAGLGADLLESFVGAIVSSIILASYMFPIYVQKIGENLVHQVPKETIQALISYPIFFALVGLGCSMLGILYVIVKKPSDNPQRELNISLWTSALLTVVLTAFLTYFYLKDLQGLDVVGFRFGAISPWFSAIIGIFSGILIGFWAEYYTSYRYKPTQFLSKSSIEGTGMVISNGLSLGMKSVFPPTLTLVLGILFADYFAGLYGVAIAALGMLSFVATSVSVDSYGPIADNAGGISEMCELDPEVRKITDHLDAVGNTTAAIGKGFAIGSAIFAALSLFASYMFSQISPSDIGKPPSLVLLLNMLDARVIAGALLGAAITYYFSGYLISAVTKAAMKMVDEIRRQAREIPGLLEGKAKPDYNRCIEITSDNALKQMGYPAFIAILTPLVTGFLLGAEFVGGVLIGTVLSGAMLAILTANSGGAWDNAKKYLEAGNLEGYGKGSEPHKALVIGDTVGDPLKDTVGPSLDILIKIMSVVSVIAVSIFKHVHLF
Nature of the test: TmPPase inhibition assay (96-well molybdenum blue colorimetric phosphate assay). Format: biochemical. On the set-up: made in house.

The target in test [3] is T1, TmPPase. Set-up: made in house; host or cells: S. cerevisiae. The conditions noted are these: cited from earlier work.
The mark [4] stands for this setting: purified PfPPase-VP1 reconstituted in liposomes, Tris-HCl pH 7.5, 50 °C, 45 min, triplicate, interval given.
Where [5] appears, read: interval given, read-out: IC50 (TmPPase).

Counter-ions that a name gives are not always drawn. Like-named read-outs stand apart in the source and are kept apart here. Bounds are passed on as bounds.

Sequence of PfPPase-VP1 (Q8IKR1 entry or part of it): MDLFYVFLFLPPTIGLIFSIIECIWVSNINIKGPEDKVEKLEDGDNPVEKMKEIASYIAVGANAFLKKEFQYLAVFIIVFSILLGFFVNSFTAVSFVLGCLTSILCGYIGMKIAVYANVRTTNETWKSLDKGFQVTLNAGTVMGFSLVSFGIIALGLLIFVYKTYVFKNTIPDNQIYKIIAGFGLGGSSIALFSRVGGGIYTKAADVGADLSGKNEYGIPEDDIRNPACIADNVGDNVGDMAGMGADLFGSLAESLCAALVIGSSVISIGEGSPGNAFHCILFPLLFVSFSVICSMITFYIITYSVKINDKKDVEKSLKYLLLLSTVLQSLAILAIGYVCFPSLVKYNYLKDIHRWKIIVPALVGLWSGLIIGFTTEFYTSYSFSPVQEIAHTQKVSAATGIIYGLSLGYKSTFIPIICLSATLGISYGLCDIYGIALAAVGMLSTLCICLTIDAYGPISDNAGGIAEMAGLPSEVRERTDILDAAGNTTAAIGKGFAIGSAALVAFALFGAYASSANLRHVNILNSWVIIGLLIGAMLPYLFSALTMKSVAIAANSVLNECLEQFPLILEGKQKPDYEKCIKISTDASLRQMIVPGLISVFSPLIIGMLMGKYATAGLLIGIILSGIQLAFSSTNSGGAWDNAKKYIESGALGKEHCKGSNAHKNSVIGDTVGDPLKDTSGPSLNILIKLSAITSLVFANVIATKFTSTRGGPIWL

`C[C@@H]1CC[C@H]2[C@@H](C)C(=O)O[C@@H]3O[C@@]4(C)CC[C@@H]1[C@]32OO4` [Compound 1, Artemisinin]: in test [1] (setting [4]), the “IC50 (PfPPase, μM)” value is reported as “Inactive”. Further, the “IC50 (TmPPase, μM)” value in test [2] is “Inactive”.
Turning to `N=C(N)c1ccc(-c2ccc(-c3ccc(C(=N)N)cc3)o2)cc1` [Compound 2, Furamidine dihydrochloride], the IC50 in test [1] is 190 µM. The “IC50 (TmPPase, μM)” value in test [2] is on record as “Inactive”.
Take `N=C(N)c1ccc(OCCCCCOc2ccc(C(=N)N)cc2)cc1` [Compound 3, Pentamidine isethionate]: the “IC50 (TmPPase, μM)” value in test [2] was “Inactive”.
Consider `CC1(C)N=C(N)N=C(N)N1c1ccc(Cl)cc1` [Compound 4, Cycloguanil hydrochloride], for which the “IC50 (PfPPase, μM)” value in test [1] (setting [4]) is “Inactive”. Also, in test [2], the “IC50 (TmPPase, μM)” value is “Inactive”.
For `OC(c1cc(C(F)(F)F)nc2c(C(F)(F)F)cccc12)C1CCCCN1` (stereo not drawn) [Compound 5, Mefloquine hydrochloride], the “IC50 (TmPPase, μM)” value in test [2] is recorded as “Inactive”.
Regarding `[H]/N=C(\N/C(=N/[H])Nc1ccc(Cl)cc1)NC(C)C` [Compound 6, Proguanil hydrochloride], the “IC50 (PfPPase, μM)” value in test [1] (setting [4]) is recorded as “Inactive”. The “IC50 (TmPPase, μM)” value in test [2] is given as “Inactive”.
Turning to `C[C@H]1c2cccc(O)c2C(=O)C2=C(O)[C@]3(O)C(=O)C(C(N)=O)=C(O)[C@@H](N(C)C)[C@@H]3[C@@H](O)[C@@H]21` [Compound 7, Doxycyline monohydrate], in test [1] (setting [4]), the “IC50 (PfPPase, μM)” value was “Inactive”. Also, the “IC50 (TmPPase, μM)” value in test [2] is given as “Inactive”.
As to `O=C1C(O)=C([C@H]2CC[C@H](c3ccc(Cl)cc3)CC2)C(=O)c2ccccc21` [Compound 8, Atovaquone], the “IC50 (PfPPase, μM)” value in test [1] (setting [4]) is on record as “Inactive”. The “IC50 (TmPPase, μM)” value in test [2] is listed as “Inactive”.
For `O=CN(O)CCCP(=O)(O)O` [Compound 9, Fosmidomycin], the “IC50 (PfPPase, μM)” value in test [1] (setting [4]) was “Inactive”. In addition, the “IC50 (TmPPase, μM)” value in test [2] was “Inactive”.
For `CC(=O)N(O)CCCP(=O)(O)O` [Compound 10, FR900098 (sodium salt)], the “IC50 (PfPPase, μM)” value in test [1] (setting [4]) was “Inactive”. Also, in test [2], the “IC50 (TmPPase, μM)” value is given as “Inactive”.
On to `CCN(CC)CCCC(C)Nc1ccnc2cc(Cl)ccc12` (stereo not drawn) [Compound 11, Chloroquine], for which the “IC50 (PfPPase, μM)” value in test [1] (setting [4]) is on record as “Inactive”. The “IC50 (TmPPase, μM)” value in test [2] is listed as “Inactive”.
On to `CCN(CC)CCCC(C)Nc1ccnc2cc(Cl)ccc12` (stereo not drawn) [Compound 12, Chloroquine diphospate salt], for which, in test [1] (setting [4]), the “IC50 (PfPPase, μM)” value is reported as “Inactive”. Also, the “IC50 (TmPPase, μM)” value in test [2] is on record as “Inactive”.
As for `CCN(CCO)CCCC(C)Nc1ccnc2cc(Cl)ccc12` (stereo not drawn) [Compound 13, Hydroxychloroquine sulfate], in test [1] (setting [4]), the “IC50 (PfPPase, μM)” value is “Inactive”. Besides, the “IC50 (TmPPase, μM)” value in test [2] was “Inactive”.
Turning to `CCN(CCO)CCCC(C)Nc1ccnc2cc(Cl)ccc12` (stereo not drawn) [Compound 14, Hydroxychloroquine], in test [1] (setting [4]), the “IC50 (PfPPase, μM)” value was “Inactive”. In test [2], the “IC50 (TmPPase, μM)” value is “Inactive”.
For the compound `CCOC(=O)c1cc(-c2ccc(OC)c(S(=O)(=O)N3CCCSc4ccccc43)c2)on1` [Compound 15], in test [1] (setting [4]), the “IC50 (PfPPase, μM)” value is on record as “Inactive”.
`COc1cc(C2c3c(-c4cc(Cl)c(C)cc4O)n[nH]c3C(=O)N2Cc2ccccc2)ccc1O` (stereo not drawn) [Compound 16]: in test [1] (setting [4]), the “IC50 (PfPPase, μM)” value is reported as “Inactive”. The IC50 in test [3] (setting [5]) was 33 µM.
For the compound `Cc1cc(C)cc(-c2cc(C(=O)Oc3ccccc3Br)no2)c1` [Compound 17], in test [1] (setting [4]), the “IC50 (PfPPase, μM)” value is listed as “Inactive”. Besides, the 50% inhibitory concentration (IC50) in test [3] (setting [5]) was 6.7 µM.
`CC(C)(C)c1cc(-c2cc(C(=O)Oc3ccccc3Br)no2)cc(C(C)(C)C)c1` [Compound 18]: the “IC50 (PfPPase, μM)” value in test [1] (setting [4]) is given as “Inactive”. The IC50 in test [3] (setting [5]) is 10 µM.
Consider `C=Cc1cc2nc(C(=O)O)cc(-c3cc(C)cc(C)c3)n2n1` [Compound 19], for which the IC50 in test [3] (read-out: IC50 against TmPPase) is less than 20 µM.
For the compound `C=Cc1cc2nc(C(=O)Oc3ccccc3Br)cc(-c3cc(C)cc(C)c3)n2n1` [Compound 20], the IC50 in test [3] (read-out: IC50 against TmPPase) was less than 20 µM.
Take `O=P(O)(O)NP(=O)(O)O` [IDP, imidodiphosphate]: in test [1] (purified PfPPase-VP1 reconstituted in liposomes, Tris-HCl pH 7.5, 50 °C, 45 min, triplicate, interval given, read-out: IC50 (PfPPase)), the IC50 is 175 µM.

The values are drawn from paper PMC12111632, “Expression, purification and preliminary pharmacological characterization of the Plasmodium falciparum membrane-bound pyrophosphatase type 1” (PLOS One, 2025).
